The values that follow come from ChEMBL document CHEMBL1201862, “PubChem BioAssay data set” (2004).

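How tested: cells in 96-well plates exposed to compound for 48 hours at five concentrations. GI50: concentration for 50% inhibition of growth.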 The source made the active and inactive calls. Cut-off read from the data, not from the text of the source: active = GI50 up to about 1.1 µM and inactive = higher.

Some test systems named below: A549; EKVX; HCT-116; HCT-15; HT-29; IGROV-1; MOLT-4; Malme-3M; NCI-H23; NCI-H460; OVCAR-4; OVCAR-8; SF-268; SK-MEL-28; UACC-257; NCI-H226; SK-OV-3.
What all share (test): growth of human tumour cells (NCI), 48 h

`c1ccc2c(c1)Cc1c(Cc3csc4ccccc34)ccc3cccc-2c13`: the GI50 in the assay on A549 was > 100 µM (inactive); in the assay on EKVX, > 100 µM (inactive); in the assay with HCT-116 it was > 100 µM (inactive); in the assay on HCT-15, over 100 µM; with HT-29, > 100 µM (inactive); with IGROV-1, > 100 µM (inactive). Further, the GI50 in the assay on MOLT-4 was > 100 µM (inactive); in the assay with Malme-3M, > 100 µM (inactive); in the assay with NCI-H23 it was > 100 µM (inactive); in the assay on NCI-H460 it was > 100 µM (inactive); with OVCAR-4, 54 µM (inactive); in the assay with OVCAR-8 it was > 100 µM (inactive). Also, the GI50 in the assay with SF-268, in the assay with SK-MEL-28 and with UACC-257 was > 100 µM (inactive) in each case.

In the case of `COc1ccc(/C=C/c2cc(OC)c(OC(C)=O)c(OC)c2)cc1`, the GI50 in the assay with A549 was 24.8 µM (inactive); in the assay with EKVX it was 28.1 µM (inactive); in the assay on HCT-116, 30.8 µM (inactive); in the assay on HCT-15, 26.2 µM; in the assay with HT-29 it was 26.5 µM (inactive); in the assay on IGROV-1, 36.8 µM (inactive). In addition, the GI50 in the assay with MOLT-4 was 20.3 µM (inactive); in the assay with Malme-3M it was 26.3 µM (inactive); in the assay with NCI-H226, 21.6 µM (inactive); in the assay on NCI-H23 it was 20.7 µM (inactive); in the assay with NCI-H460, 22.1 µM (inactive); with OVCAR-4, 45.9 µM (inactive). Also, the GI50 in the assay on OVCAR-8 is 22 µM (inactive); with SF-268, 29.1 µM (inactive); in the assay on SK-MEL-28, 9.68 µM (inactive); in the assay on SK-OV-3, 37.3 µM (inactive); in the assay on UACC-257, 20.7 µM (inactive).

With `CN(C)CCn1c2c3ccccc3ccc2c2oc(=O)c3ccccc3c21`, the GI50 in the assay with A549 is 3.88 µM (inactive); in the assay on EKVX it was 12.6 µM (inactive); with HCT-116 it was 4.2 µM (inactive); with HCT-15, 8.34 µM; with HT-29 it was 4.86 µM (inactive); in the assay with IGROV-1 it was 12.1 µM (inactive). Further, the GI50 was 2.62 µM (inactive) in the assay with MOLT-4; 9.86 µM (inactive) with Malme-3M; 6.3 µM (inactive) in the assay on NCI-H23; 2.79 µM (inactive) in the assay on NCI-H460; 6.44 µM (inactive) in the assay on OVCAR-4; 5.53 µM (inactive) with OVCAR-8. Moreover, the GI50 in the assay with SF-268 was 2.71 µM (inactive); in the assay with SK-MEL-28 it was 5.68 µM (inactive); in the assay with SK-OV-3, 0.895 µM (active); in the assay on UACC-257, 4.83 µM (inactive).

On to `COc1ccc(NC(=O)CC2S/C(=N\c3ccccc3C)NC2=O)c([N+](=O)[O-])c1` (centres undefined), for which the GI50 was > 100 µM (inactive) in the assay with A549; > 100 µM (inactive) in the assay on HCT-116; over 100 µM in the assay on HCT-15; > 100 µM (inactive) in the assay with HT-29; > 100 µM (inactive) with IGROV-1; > 100 µM (inactive) with MOLT-4. Also, the GI50 in the assay on Malme-3M, in the assay on NCI-H226, in the assay with NCI-H23, in the assay on NCI-H460, in the assay on OVCAR-4 and in the assay on OVCAR-8 was > 100 µM (inactive) each time. In addition, the GI50 in the assay with SF-268, in the assay with SK-MEL-28, in the assay with SK-OV-3 and in the assay with UACC-257 was > 100 µM (inactive) each time.

Consider `O=c1c2cccnc2ncn1CCCN1CCOCC1`, for which the GI50 is > 100 µM (inactive) in the assay on A549; > 100 µM (inactive) in the assay with EKVX; > 100 µM (inactive) in the assay on HCT-116; > 100 µM (inactive) in the assay with HT-29; > 100 µM (inactive) in the assay on IGROV-1; > 10 µM (inactive) in the assay on MOLT-4. Further, the GI50 in the assay on Malme-3M, with NCI-H226, in the assay with NCI-H23, in the assay on NCI-H460, in the assay on OVCAR-4 and with OVCAR-8 was > 100 µM (inactive) each time. For the same compound, the GI50 with SF-268, with SK-MEL-28 and in the assay on SK-OV-3 was > 100 µM (inactive) in each case.
